Data as given in ChEMBL document CHEMBL4616634, “4β-Hydroxywithanolide E from Goldenberry (Whole Fruits of Physalis peruviana L.) as a Promising Agent against Chronic Obstructive Pulmonary Disease” (J Nat Prod, 2020).
The source made the active and inactive calls.

Tests used:
[1] = system: Mus musculus; test: Antiinflammatory activity in C57BL/6 mouse model of CS-induced pulmonary injury assessed as reduction in IL-6 protein expression in lungs at 2 to 4 mg/kg, ip for 5 days by ELISA; type: functional, organism-based
[2] = system: Mus musculus; test: Antioxidant Activity in C57BL/6 mouse model of CS-induced pulmonary injury assessed as increase in SOD level in lungs at 2 to 4 mg/kg, ip for 5 days; type: functional, organism-based
[3] = system: RAW264.7; test: Inhibition of LPS-induced NFkappaB activation in mouse RAW264.7 cells assessed as increase in IKBalpha protein expression at 0.5 to 4 uM pre-incubated for 1 hr followed by LPS-stimulation and measured after 2 hrs by immunoblot analysis; type: cell-based
[4] = system: Mus musculus; test: Antiinflammatory activity in C57BL/6 mouse model of CS-induced pulmonary injury assessed as reduction in hyperplasia of pneumo-cytes in lungs at 2 to 4 mg/kg, ip for 5 days by hematoxylin and eosin staining based fluorescence microscopic analysis; type: functional, organism-based

CC1=C(C)C(=O)O[C@H]([C@](C)(O)[C@]2(O)CC[C@@]3(O)[C@@H]4C[C@H]5O[C@]56[C@@H](O)C=CC(=O)[C@]6(C)[C@H]4CC[C@]23C)C1
active: Activity [1] | Activity [2] | inhibition [3] | Activity [4]
